Values quoted from earlier work, collected in patent US20080200520A1, “Iron Modulators” (BTG INTERNATIONAL LIMITED, priority 2005, published 2008).
Counter-ions that a name gives are not always drawn.

Experiments:
[1] = comparative compounds, commercial lots
[2] = comparative compounds, commercial lots; solvent in which soluble
mice = conditions: oral treatment
[3] = comparative compounds, commercial lots; remark: listed apart in the source

Row | Stability [1] | Solubility [2] | Compound | protection from the effects of MPTP (mice) | Potential Hazards [3]
1 | stable | water | Cc1c(O)c(=O)ccn1C [Deferiprone] |  | 
2 | stable | DMSO | Oc1c(I)cc(Cl)c2cccnc12 [Clioquinol] | protect mice from the effects of MPTP | harmful. Sensitisation by inhalation and skin contact. Causes severe irritation. Readily absorbed through skin. Target organs: eyes and nerves
3 | stable | water | CC(=O)N(O)CCCCCNC(=O)CCC(=O)N(O)CCCCCNC(=O)CCC(=O)N(O)CCCCCN [Desferrioxamine Mesylate] |  | none
